Patent publication US20050163773A1, “Methods and pharmaceutical compositions for dopaminergic modulation of t-cell adhesion and activity” (priority 2001, published 2005)
Entries after “also recorded” stand apart in the source; their conditions may differ.

What was measured:
[1] = system: Dopamine receptors on normal human T-cells; conditions: for blocking of DPAT-induced T-cell adhesion to fibronectin: DPAT 10 nM
Method: Non-radioactive assessment of T-cell binding was performed as described in Material and Methods, results presented as the mean ±OD of bound T-cells from 4-6 wells.
The treated cells were suspended in adhesion medium and incubated (30 min., 37° C.) in a humidified 10% CO2 incubator. The cells were seeded in the fibronectin-coated microtiter plates, and the plates were then returned to the incubator for an additional 30 min. incubation. The amount of T-cell adhesion was determined as above.

TNFα secretion = TNFα secretion by human peripheral T-cells (sandwich ELISA); assay type: cell-based
Excerpt: (§1) The results are expressed as pg/ml.
(§2) The results are expressed as pg/mi.
as §1, §1, §1

IL-10 secretion [2] = conditions: Dopamine 10^−8 M, 72 hours
normal human T-cells = experiment: T-cell adhesion assay (adhesion of human T-cells to fibronectin); conditions: dose dependence, human T-cells
Method: T-cell adhesion assay: In the majority of the experiments, adhesion of purified normal human T-cells to fibronectin was assayed with radioactively labeled T-cells as follows: normal human T-cells, purified from a fresh blood sample, were labeled with Na2[^51CrO4], washed, and resuspended in adhesion medium (RPMI-1640 supplemented with 2% BSA, 1 mM Ca^++, 1 mM Mg^++, 1% sodium pyruvate, 1% glucose, and 1% HEPES buffer). The cells were then pre-treated (30 min., 37° C.) with DPAT, and added to fibronectin coated (1 μg/well; Sigma Chemicals, St. Louis, Mo.) microtiter flat-bottomed 96 well plates (1×10^5 cells/100 μl/well). The plates were placed in a humidified incubator (37° C., 30 min., 10% CO2), and than washed thoroughly several times with PBS, to remove non-adherent T-cells. The adherent T-cells were lysed with 1% Tween 20 in 1N NaOH, and the radioactivity in the resulting supernatants was determined in a γ-counter. For each experimental group, results were expressed as the mean CPM±SD of bound T-cells from quadruplicate wells. DPAT-treated T-cell adhesion to BSA-(rather than fibronectin) coated wells, and untreated T-cell adhesion to fibronectin coated wells, were the standard negative controls.
Non-radioactive T-cell adhesion assays: Alternatively, T-cell adhesion assays were performed with non-radioactively labeled cells, differing from the above protocol only in the final detection steps which were performed as follows: After the final washing of the adhesion plates and removal of the non adherent cells, the microtiter wells were supplemented with lysis and substrate solution (60 μl/well of: 0.5% Triton X-100 in water mixed with an equal volume of 7.5 mM p-nitrophenol-N-acetyl-β-D-glucosaminide, (Sigma Chemicals, St. Louis, Mo.) in 0.1M citrate buffer pH=5.0). The plates were then incubated (˜18hr) in a CO2-free 37° C. incubator, supplemented with stop solution (90 μl/well of 50 mM glycine, (Sigma Chemicals, St. Louis, Mo.) pH=10.4 containing 5 mM EDTA), and the optical density was measured at 405 nm in a standard Elisa reader.

[3] = system: normal human peripheral T-cells; conditions: Dopamine 10^−8 M, 48 hours
[4] = system: normal human peripheral T-cells
IL-4 secretion = conditions: Dopamine 10^−8 M, 24 hours
IL-10 secretion [5] = experiment: IL-10 secretion by human peripheral T-cells (sandwich ELISA); assay type: cell-based; conditions: for inhibition of Dopamine-induced IL-10 secretion by receptor-specific antagonists: L-741,626 10^−7 M, U-Mal 10^−6 M, L-741,741 10^−6 M
Excerpt: The results are expressed as pg/ml IL-10. […] Immunostaining is with intracellular anti-IL-10 FITC conjugated (FL-1) and anti-CD4 PE conjugated (FL-2) antibodies, as described in Materials and Methods hereinbelow.
as §2, §1, §1, §1

[6] = system: oxazalone-sensitized T-cells; experiment: Passively transferred delayed type hypersensitivity (DTH) with T-cells treated ex vivo; assay type: in vivo, mouse
Method: Lymph nodes were removed from oxazalone-sensitized mice, and the T-cell suspension was exposed ex-vivo to increasing concentrations of DPAT (FIG. 9A, DPAT […]-DPAT 10^−6M) as described for FIG. 8 hereinabove. Control T-cells were incubated with medium only (untreated T-cells). The T-cells were then washed, resuspended in PBS and injected intravenously into naive syngeneic mice. The ears of the recipient mice were than challenged with oxazalone, and the degree of ear swelling was measured by micrometer 24 hr later. DTH is expressed as the mean ±SD of ear swelling in units of 10^−2 mm. […] Oxazalone-sensitized T-cells were incubated ex vivo for one hour with either DPAT (10^−8 M, +DPAT) or U-Mal (10^−7 M, +U-Mal), or both. The T-cells were then washed, resuspended in PBS, injected intravenously into normal recipients, and DTH measured as described hereinabove. […] FIGS. 9A and 9B represent two individual experiments, each experimental group consisting of 8 mice.
Passively transferred delayed type hypersenisitivity (DTH): Groups of 6-8 BALB/c female mice (The Jackson Laboratory, Bar Harbor, Mass., USA) were sensitized on the abdominal skin with 200 μt of 2% oxazalone dissolved in acetone/olive oil [4:1 vol/vol)] applied topically. Five days later, lymph nodes were removed from the sensitized mice, and a cell suspension prepared. The cells (3-5×10^6/ml in RPMI, no additional supplements) were than added for […] incubation ([…]. 37° C., 10% CO2 humidified incubator) with either DPAT, U-Mal, or both (in the latter combination the antagonist added 5 minutes before the agonist). The cells were than washed, resuspended in PBS, and injected IV (40×10^6 /mouse) into normal BALB/c recipients. Immediately afterwards the recipient mice were […] with 10 μl of 2% oxazalone in acetone/olive oil, applied topically to each side of the ear. A constant area of the ear was measured immediately before challenge and 24 hr after the challenge with a Mitutoyo engineer's micrometer. The individual measuring the ear swelling was unaware of the identity of the mice groups. The DTH reaction is expressed as the mean±SD (for each group) of the increment of ear swelling 24 hours after inoculation of the oxazalone-sensitized T-cells, in units of 10^−2 mm.

[7] = system: SJL/J anti PLP 139-151 T-cells; experiment: Experimental autoimmune encephalomyelitis (EAE) induced by encephalitogenic T-cells treated ex vivo; assay type: in vivo, mouse; conditions: U-Mal 10^−7 M, 5 minutes before DPAT
α4β1 and α5β1 integrins = experiment: Inhibition of induced T-cell adhesion to fibronectin with specific integrin blockers; assay type: cell-based, human; conditions: for blocking of DPAT-induced T-cell adhesion to fibronectin by integrin blockers: DPAT 10 nM; for blocking of DPAT-induced T-cell adhesion to fibronectin by integrin blockers / blocking of Dopamine-induced T-cell adhesion to fibronectin by integrin blockers: mAbs 15-25 μg/ml, peptides 50 μg/ml; for blocking of Dopamine-induced T-cell adhesion to fibronectin by integrin blockers: Dopamine 10 nM; for inhibition of PMA-induced T-cell adhesion to fibronectin by integrin blockers: PMA as positive control
Method: The results are presented as the mean ±SD CPM of bound T-cells from quadruplicate wells. One experiment, representative of two, is presented for each of the three inducers of T-cell binding.
The treated cells were seeded in fibronectin-coated microtiter plates.

CC(C)(C)[C@]1(O)CCN2C[C@H]3c4ccccc4CCc4cccc(c43)[C@@H]2C1 [Butaclamol]
blocking of DPAT-induced T-cell adhesion to fibronectin [1]: without effect

NCCc1ccc(O)c(O)c1 [Dopamine]
Dopamine concentration inducing maximal TNFα secretion (TNFα secretion; 24 hours): 10^−4 M
Dopamine concentration with significant effect on TNFα secretion (TNFα secretion; 24 hours): ≥ 10^−8 M
TNFα secretion at excess Dopamine (TNFα secretion; Dopamine 10^−3 M): drastic reduction in cytokine secretion
TNF-α release (TNFα secretion; Dopamine 10^−8 M, 24 hours, no antigen stimulation): induced a strong release of TNF-α
IL-10 secretion, cloned resting Th0 cells (IL-10 secretion [2]): strong induction
IL-10 secretion, cloned resting Th1 cells ("forbidden" cytokine) (IL-10 secretion [2]): secreting significant amounts of IL-10
IL-10 secretion, cloned resting Th2 cells (IL-10 secretion [2]): strong induction
optimum concentration for induction of T-cell adhesion to fibronectin (normal human T-cells): 10 nM
increase in the number of IL-10 producing T-helper cells [3]: 9%
cellular death in normal T-cells [4]: induces cellular death
r-RNA bands in total RNA (loss of viability) ([4]; Dopamine 10^−3): near total absence of r-RNA bands
IL-4 secretion (IL-4 secretion): but not IFN-γ (FIG. 11B) or IL-4
Dopamine concentration inducing maximal IL-10 secretion (IL-10 secretion [5]; 72 hours): 10^−4 M
Dopamine concentration with significant effect on IL-10 secretion (IL-10 secretion [5]; 72 hours): ≥ 10^−8 M
increase in IL-10 secretion (IL-10 secretion [5]; Dopamine 10 nM, 72 hours): 2.5 fold
IL-10 secretion at excess Dopamine (IL-10 secretion [5]; Dopamine 10^−3 M): drastic reduction in cytokine secretion
time of maximal IL-10 secretion (IL-10 secretion [5]; Dopamine 10^−8 M): 72 h
IL-10 release (IL-10 secretion [5]; Dopamine 10^−8 M, 72 hours, no antigen stimulation): induced a strong release of IL-10

OC1(c2ccc(Cl)cc2)CCN(Cc2c[nH]c3ccccc23)CC1 [L-741,626]
inhibition of Dopamine-induced IL-10 secretion by receptor-specific antagonists (IL-10 secretion [5]; Dopamine 10^−8 M, 72 hours): inhibited by the D2

Oc1cc2c(cc1O)C(c1ccccc1)CNCC2 (centres unmarked) [SKF 38393]
induction of TNFα secretion by receptor-specific Dopamine agonists (TNFα secretion; agonist 10^−7 M, 24 hours): induced by D1

CCCN(CCC)C1Cc2cc(OC)c(OC)cc2C1.O=C(O)/C=C\C(=O)O [U-Mal, U-99194A maleate]
inhibition of Dopamine-induced TNFα secretion by receptor-specific antagonists (TNFα secretion; Dopamine 10^−8 M, 24 hours, L-741,626 10^−7 M, U-Mal 10^−6 M, L-741,741 10^−6 M): inhibited by D3
effect on DTH by itself ([6]; U-Mal 10^−7 M alone): no effect by itself
effect of pre-treatment on DPAT suppression of DTH ([6]; U-Mal 10^−7 M, 5 minutes before DPAT 10^−8 M): near total block of protection; also recorded: prevented
effect of pre-treatment on the DPAT suppressive effect in EAE [7]: prevented
inhibition of Dopamine-induced IL-10 secretion by receptor-specific antagonists (IL-10 secretion [5]; Dopamine 10^−8 M, 72 hours): inhibited by the D2 and D3
blocking of DPAT-induced T-cell adhesion to fibronectin [1]: succeeded in blocking
independent effect on T-cell adhesion to fibronectin ([1]; antagonist alone, data not shown): no independent effect
toxic effects on the human T-cells ([1]; data not shown): no toxic effects

gly-arg-gly-asp-ser (GRGDS) [RGD peptide]
blocking of DPAT-induced T-cell adhesion to fibronectin by integrin blockers (α4β1 and α5β1 integrins): effectively blocked
blocking of Dopamine-induced T-cell adhesion to fibronectin by integrin blockers (α4β1 and α5β1 integrins): effectively blocked
inhibition of PMA-induced T-cell adhesion to fibronectin by integrin blockers (α4β1 and α5β1 integrins): inhibition

gly-arg-gly-glu-ser (GRGESP) [RGE-containing peptide, non-relevant RGE-containing control peptide]
blocking of DPAT-induced T-cell adhesion to fibronectin by integrin blockers (α4β1 and α5β1 integrins): No significant effect
blocking of Dopamine-induced T-cell adhesion to fibronectin by integrin blockers (α4β1 and α5β1 integrins): No significant effect
inhibition of PMA-induced T-cell adhesion to fibronectin by integrin blockers (α4β1 and α5β1 integrins): insensitivity
